Measured values: patent publication US12570675B2, “Boronic acid compounds” (LG CHEM, LTD., priority 2020, dated 2026)

molecular target: Proteasome chymotrypsin-like activity (S26 protein from RPMI8226 cells) (Homo sapiens, UniProt P28074); type: biochemical; settings: S26 protein from RPMI8226 cell extract 2 ug/well, substrate 20 uM, 37° C., 90 minutes; read-out: Proteasome chymotrypsin-like activity inhibition IC50
Description: The abilities to inhibit the proteasome activity of the compounds described in the Examples of the present invention and boronic acid drugs were evaluated as follows.
RPMI8226 cells, which is a multiple myeloma cell line, were cultured and then separated by a centrifuge, and washed twice with phosphate buffered saline (PBS). 20 mM of a tris-HCl (pH 8.0) buffer solution was added to the washed cells, and the cells were disrupted by a homogenizer and centrifuged to obtain S26 protein from the supernatant. Suc-Leu-Leu-Val-Tyr-AMC, for a fluorogenic substrate for the chymotrypsin-like activity of the proteasome, and Z-Leu-Leu-Glu-AMC, for a fluorogenic substrate for the caspase-like activity, were purchased from Calbiochem, EMD Millipore and used. Into each well of a 96-well plate (opaque, black round bottom), 20 ul of the S26 protein (final RPMI8226 cell extract concentration: 2 ug/well), 10 ul of S26 proteasome inhibitor serially diluted from 10 uM (final DMSO concentration: 0.5%), and 20 ul of the fluorogenic substrate for the proteasome chymotrypsin-like or caspase-like activity (final concentration: 20 uM) were added and mixed and allowed to react in a 37° C. incubator for 90 minutes. The fluorescence of the fluorogenic substrate was measured by FlexStation II Fluorometer (Molecular Devices). The fluorescence inhibited by the compound diluted at each concentration was measured as the relative percentage value for the amount obtained from the treatment only with the S26 protein and the fluorogenic substrate. IC50 (inhibitory concentration 50) was expressed in terms of a concentration that inhibits 50% of the maximum fluorescence induced by the fluorogenic substrate.

Chain of Proteasome chymotrypsin-like activity (S26 protein from RPMI8226 cells) (P28074 60-263 limits assumed): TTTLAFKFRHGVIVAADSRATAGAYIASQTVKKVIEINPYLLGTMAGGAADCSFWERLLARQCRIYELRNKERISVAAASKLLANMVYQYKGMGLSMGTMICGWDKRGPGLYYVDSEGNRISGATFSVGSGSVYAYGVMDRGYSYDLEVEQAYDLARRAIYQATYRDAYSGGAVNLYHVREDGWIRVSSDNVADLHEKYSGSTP

IC50 [nM] | Structure (SMILES)
< 100 | CC(C)C[C@H](NC(=O)C1CC([C@H](CC(C)C)NC(=O)Cc2ccccc2)=NO1)B(O)O (stereo partly drawn) [Example 105, ((1R)-3-methyl-1-(3-((S)-3-methyl-1-(2-phenylacetamido)butyl)-4,5-dihydroisoxazol-5-carboxamido)butyl)boronic acid]
< 10 | CC(C)C[C@H](NC(=O)C1(Cc2ccccc2)CC(CNC(=O)c2cnccn2)=NO1)B(O)O (stereo partly drawn) [Example 106, ((1R)-1-(5-benzyl-3-((pyrazin-2-carboxamido)methyl)-4,5-dihydroisoxazol-5-carboxamido)-3-methylbutyl)boronic acid]
< 10 | CC(C)C[C@H](NC(=O)C1(Cc2ccccc2)CC(CNC(=O)C2CCCc3ccccc32)=NO1)B(O)O (stereo partly drawn) [Example 108, ((1R)-1-(5-benzyl-3-((1,2,3,4-tetrahydronaphthalen-1-carboxamido)methyl)-4,5-dihydroisoxazol-5-carboxamido)-3-methylbutyl)boronic acid]
< 10 | CC(C)C[C@H](NC(=O)C1(Cc2ccccc2)CC(CNC(=O)Cc2ccccc2)=NO1)B(O)O (stereo partly drawn) [Example 109, ((1R)-1-(5-benzyl-3-((2-phenylacetamido)methyl)-4,5-dihydroisoxazol-5-carboxamido)-3-methylbutyl)boronic acid]
< 25 | CC(C)C[C@H](NC(=O)C1(Cc2ccccc2)CC(CNC(=O)CCc2ccccc2)=NO1)B(O)O (stereo partly drawn) [Example 110, ((1R)-1-(5-benzyl-3-((3-phenylpropanamido)methyl)-4,5-dihydroisoxazol-5-carboxamido)-3-methylbutyl)boronic acid]
< 10 | Cc1ccc(F)cc1C(=O)NCC1=NOC(Cc2ccccc2)(C(=O)N[C@@H](CC(C)C)B(O)O)C1 (stereo partly drawn) [Example 111, ((1R)-1-(5-benzyl-3-((5-fluoro-2-methylbenzamido)methyl)-4,5-dihydroisoxazol-5-carboxamido)-3-methylbutyl)boronic acid]
< 10 | CC(C)C[C@H](NC(=O)C1(C(F)c2ccccc2)CC(CNC(=O)c2nccc3ccccc23)=NO1)B(O)O (stereo partly drawn) [Example 114, ((1R)-1-(5-(fluoro(phenyl)methyl)-3-((isoquinolin-1-carboxamido)methyl)-4,5-dihydroisoxazol-5-carboxamido)-3-methylbutyl)boronic acid]
< 25 | CC(C)C[C@H](NC(=O)C1(Cc2ccccc2)CC(CNC(=O)C2(c3ccccc3)CC2)=NO1)B(O)O (stereo partly drawn) [Example 118, ((1R)-1-(5-benzyl-3-((1-phenylcyclopropan-1-carboxamido)methyl)-4,5-dihydroisoxazol-5-carboxamido)-3-methylbutyl)boronic acid]
< 10 | Cc1nocc1C(=O)NCC1=NOC(Cc2ccccc2)(C(=O)N[C@@H](CC(C)C)B(O)O)C1 (stereo partly drawn) [Example 120, ((1R)-1-(5-benzyl-3-((3-methylisoxazol-4-carboxamido)methyl)-4,5-dihydroisoxazol-5-carboxamido)-3-methylbutyl)boronic acid]
< 10 | CC(C)C[C@H](NC(=O)C1(Cc2ccccc2)CC(CNC(=O)c2cc3ccccc3cn2)=NO1)B(O)O (stereo partly drawn) [Example 121, ((1R)-1-(5-benzyl-3-((isoquinolin-3-carboxamido)methyl)-4,5-dihydroisoxazol-5-carboxamido)-3-methylbutyl)boronic acid]
< 10 | CC(C)C[C@H](NC(=O)C1(Cc2ccccc2)CC(CNC(=O)c2cnc3ccccc3n2)=NO1)B(O)O (stereo partly drawn) [Example 122, ((1R)-1-(5-benzyl-3-((quinoxalin-2-carboxamido)methyl)-4,5-dihydroisoxazol-5-carboxamido)-3-methylbutyl)boronic acid]
< 10 | CC(C)C[C@H](NC(=O)C1(Cc2ccccc2)CC(CNC(=O)c2ccc(OC(C)C)c(C#N)c2)=NO1)B(O)O (stereo partly drawn) [Example 123, [(1R)-1-[[5-benzyl-3-[[(3-cyano-4-isopropoxy-benzoyl)amino]methyl]-4H-1,2-oxazol-5-carbonyl]amino]-3-methyl-butyl]boronic acid]
< 10 | CC(C)C[C@H](NC(=O)C1(Cn2cccn2)CC(CNC(=O)c2nccc3ccccc23)=NO1)B(O)O (stereo partly drawn) [Example 128, ((1R)-1-(5-((1H-pyrazol-1-yl)methyl)-3-((isoquinolin-1-carboxamido)methyl)-4,5-dihydroisoxazol-5-carboxamido)-3-methylbutyl)boronic acid]
< 10 | CC(C)C[C@H](NC(=O)C1(C(O)c2ccccc2)CC(CNC(=O)c2nccc3ccccc23)=NO1)B(O)O (stereo partly drawn) [Example 131, ((1R)-1-(5-(hydroxy(phenyl)methyl)-3-((isoquinolin-1-carboxamido)methyl)-4,5-dihydroisoxazol-5-carboxamido)-3-methylbutyl)boronic acid]

Continued, compound first:

Structure (SMILES) | IC50 [nM]
CC(C)C[C@H](NC(=O)C1(C(C)C)CC(CNC(=O)c2cc(Cl)ccc2Cl)=NO1)B(O)O (stereo partly drawn) [Example 89, ((1R)-1-(3-((2,5-dichlorobenzamido)methyl)-5-isopropyl-4,5-dihydroisoxazol-5-carboxamido)-3-methylbutyl)boronic acid] | < 100
CC(C)C[C@H](NC(=O)C1(CC(C)C)CC(CNC(=O)c2cc(Cl)ccc2Cl)=NO1)B(O)O (stereo partly drawn) [Example 90, ((1R)-1-(3-((2,5-dichlorobenzamido)methyl)-5-isobutyl-4,5-dihydroisoxazol-5-carboxamido)-3-methylbutyl)boronic acid] | < 25
CC(C)C[C@H](NC(=O)C1(CC(C)C)CC(CNC(=O)c2nccc3ccccc23)=NO1)B(O)O (stereo partly drawn) [Example 91, ((1R)-1-(5-isobutyl-3-((isoquinolin-1-carboxamido)methyl)-4,5-dihydroisoxazol-5-carboxamido)-3-methylbutyl)boronic acid] | < 25
CC(C)C[C@H](NC(=O)C1(Cc2ccccc2)CC(CNC(=O)c2cc3ccccc3s2)=NO1)B(O)O (stereo partly drawn) [Example 93, ((1R)-1-(3-((benzo[b]thiophen-2-carboxamido)methyl)-5-benzyl-4,5-dihydroisoxazol-5-carboxamido)-3-methylbutyl)boronic acid] | < 10
CC(C)C[C@H](NC(=O)C1(Cc2ccccc2)CC(CNC(=O)c2ccc(-c3ccccc3)cc2)=NO1)B(O)O (stereo partly drawn) [Example 94, ((1R)-1-(3-([1,1′-biphenyl]-4-carboxamidomethyl)-5-benzyl-4,5-dihydroisoxazol-5-carboxamido)-3-methylbutyl)boronic acid] | < 10
CC(C)C[C@H](NC(=O)C1(Cc2ccccc2)CC(CNC(=O)c2cccc(-c3ccccc3)c2)=NO1)B(O)O (stereo partly drawn) [Example 95, ((1R)-1-(3-([1,1′-biphenyl]-3-carboxamidomethyl)-5-benzyl-4,5-dihydroisoxazol-5-carboxamido)-3-methylbutyl)boronic acid] | < 10
CC(C)C[C@H](NC(=O)C1(Cc2ccccc2)CC(CNC(=O)c2cccc(-c3ccccc3)n2)=NO1)B(O)O (stereo partly drawn) [Example 96, ((1R)-1-(5-benzyl-3-((6-phenylpicolinamido)methyl)-4,5-dihydroisoxazol-5-carboxamido)-3-methylbutyl)boronic acid] | < 10
CC(C)C[C@H](NC(=O)C1(Cc2ccccc2)CC(CNC(=O)c2ccccc2-c2ccccc2)=NO1)B(O)O (stereo partly drawn) [Example 97, ((1R)-1-(3-([1,1′-biphenyl]-2-carboxamidomethyl)-5-benzyl-4,5-dihydroisoxazol-5-carboxamido)-3-methylbutyl)boronic acid] | < 10
CC(C)C[C@H](NC(=O)C1(Cc2ccccc2)CC(CNC(=O)c2cccc(-c3ccccn3)c2)=NO1)B(O)O (stereo partly drawn) [Example 98, ((1R)-1-(5-benzyl-3-((3-(pyridin-2-yl)benzamido)methyl)-4,5-dihydroisoxazol-5-carboxamido)-3-methylbutyl)boronic acid] | < 10
CC(C)C[C@H](NC(=O)C1(Cc2ccccc2)CC(CN(C)C(=O)c2nccc3ccccc23)=NO1)B(O)O (stereo partly drawn) [Example 99, ((1R)-1-(5-benzyl-3-((N-methylisoquinolin-1-carboxamido)methyl)-4,5-dihydroisoxazol-5-carboxamido)-3-methylbutyl)boronic acid] | < 25
CC(C)C[C@H](NC(=O)C1(Cc2ccc(Cl)cc2)CC(CNC(=O)c2nccc3ccccc23)=NO1)B(O)O (stereo partly drawn) [Example 101, ((1R)-1-(5-(4-chlorobenzyl)-3-((isoquinolin-1-carboxamido)methyl)-4,5-dihydroisoxazol-5-carboxamido)-3-methylbutyl)boronic acid] | < 10
CC(C)C[C@H](NC(=O)C1(Cc2ccccc2Cl)CC(CNC(=O)c2nccc3ccccc23)=NO1)B(O)O (stereo partly drawn) [Example 102, ((1R)-1-(5-(2-chlorobenzyl)-3-((isoquinolin-1-carboxamido)methyl)-4,5-dihydroisoxazol-5-carboxamido)-3-methylbutyl)boronic acid] | < 10
COc1ccccc1C(=O)NCC1=NOC(C(=O)N[C@@H](CC(C)C)B(O)O)C1 (stereo partly drawn) [Example 103, ((1R)-1-(3-((2-methoxybenzamido)methyl)-4,5-dihydroisoxazol-5-carboxamido)-3-methylbutyl)boronic acid] | < 50
CC(C)C[C@H](NC(=O)C1CC([C@H](CC(C)C)NC(=O)c2ccccc2)=NO1)B(O)O (stereo partly drawn) [Example 104, ((1R)-1-(3-((S)-1-benzamido-3-methylbutyl)-4,5-dihydroisoxazol-5-carboxamido)-3-methylbutyl)boronic acid] | < 100
